This assay has as its system HCV 1b genotype replicon. As to the kind of experiment: HCV replicon assay (qRT-PCR or luciferase). As to conditions: Hepatitis C virus, read-out: Genotype-1b replicon EC50 Range. It is filed as cell-based. The text has this: HCV replicon cell lines (kindly provided by R. Bartenschlager) isolated from colonies as described by Lohman et. al. (Lohman et al. (1999) Science 285: 110-113, expressly incorporated by reference in its entirety) and used for all experiments. The HCV replicon has the nucleic acid sequence set forth in EMBL Accession No.: AJ242651, the coding sequence of which is from nucleotides 1801 to 8406.
The coding sequence of the published HCV replicon was synthesized and subsequently assembled in a modified plasmid pBR322 (Promega, Madison, Wis.) using standard molecular biology techniques. One replicon cell line (“SGR 11-7”) stably expresses HCV replicon RNA which consists of (i) the HCV 5′UTR fused to the first 12 amino acids of the capsid protein, (ii) the neomycin phosphotransferase gene (neo), (iii) the IRES from encephalomyocarditis virus (EMCV), and (iv) HCV NS2 to NS5B genes and the HCV 3′UTR. Another replicon cell line (“Huh-luc/neo-ET”) described by Vrolijk et. al. (Vrolijk et. al. (2003) Journal of Virological Methods 110:201-209, expressly incorporated by reference in its entirety) stably expresses HCV replicon RNA which consists of (i) the HCV 5′UTR fused to the first 12 amino acids of the capsid protein, (ii) the firefly luciferase reporter gene, (iii) the ubiquitin gene, (iv) the neomycin phosphotransferase gene (neo), (v) the IRES from encephalomyocarditis virus (EMCV), and (vi) HCV NS3 to NS5B genes that harbor cell culture adaptive mutations (E1202G, T1280I, K1846T) and the HCV 3′UTR.
These cell lines were maintained at 37° C., 5% CO2, 100% relative humidity in DMEM (Cat#11965-084, Invitrogen), with 10% fetal calf serum (“FCS”, Invitrogen), 1% non-essential amino acids (Invitrogen), 1% of Glutamax (Invitrogen), 1% of 100× penicillin/streptomycin (Cat#15140-122, Invitrogen) and Geneticin (Cat#10131-027, Invitrogen) at 0.75 mg/ml or 0.5 mg/ml for 11-7 and Huh-luc/neo-ET cells, respectively.
EC50 values of single agent compounds and combinations were determined by HCV RNA detection using quantitative RT-PCR, according to the manufacturer's instructions, with a TAQMAN® One-Step RT-PCR Master Mix Reagents Kit (Cat# AB 4309169, Applied Biosystems) on an ABI Model 7500 thermocycler. The TaqMan primers used for detecting and quantifying HCV RNA were obtained from Integrated DNA Technologies. HCV RNA was normalized to GAPDH RNA levels in drug-treated cells, which is detected and quantified using the Human GAPDH Endogenous Control Mix (Applied Biosystems, AB 4310884E). Total cellular RNA is purified from 96-well plates using the RNAqueous 96 kit (Ambion, Cat# AM1812). Chemical agent cytotoxicity is evaluated using an MTS assay according to the manufacturer's directions (Promega).
Since clinical drug resistance often develops in viral infections following single agent therapies, there is a need to assess the additive, antagonistic, or synergistic properties of combination therapies. We used the HCV replicon system to assess the potential use of the compound of the present invention or in combination therapies with Interferon alpha, cyclosporine analogs and inhibitors targeting other HCV proteins. The acute effects of a single or combinations of drugs are studied in the “Huh-luc/neo-ET” replicon with each chemical agent titrated in an X or Y direction in a 6 point two-fold dilution curve centered around the EC50 of each drug. Briefly, replicon cells are seeded at 7,000 cells per well in 90 ul DMEM (without phenol red, Invitrogen Cat.#31053-036) per well with 10% FCS, 1% non-essential amino acids, 1% of Glutamax and 1% of 100× penicillin/streptomycin and incubated overnight at 37° C., 5% CO2, 100% relative humidity. […]

Each structure is given as a SMILES string. A value given as a limit tells only on which side of the number the result lay.

As for `COC(=O)N[C@H](C(=O)N1CCC[C@H]1c1ncc(-c2ccc(-c3ccc(-c4cnc([C@@H]5CC[C@@H]6CCCCC(=O)N65)[nH]4)cc3)cc2)[nH]1)C(C)C` [Example 375], the EC50 was under 1 nM.

Take `COC(=O)N[C@H](C(=O)N1CCC[C@H]1c1ncc(-c2ccc(-c3ccc(-c4cnc([C@@H]5CC[C@H]6CCCCC(=O)N65)[nH]4)cc3)cc2)[nH]1)C(C)C` [Example 374]: the EC50 is under 1 nM.

Consider `COC(=O)NC1CC[C@@H]2CC[C@@H](c3ncc(-c4ccc(-c5ccc(-c6cnc([C@@H]7CCCN7C(=O)[C@@H](NC(=O)OC)C(C)C)[nH]6)cc5)cc4)[nH]3)N2C1=O` (mixture of isomers) [Example 371], for which the EC50 was under 1 nM.

`COC(=O)N[C@H](C(=O)N1CCC[C@H]1c1ncc(-c2ccc(-c3ccc(-c4cnc([C@@H]5CS[C@@H]6CCCC(=O)N65)[nH]4)cc3)cc2)[nH]1)C(C)C` [Example 372]: the EC50 is under 1 nM.

As to `COC(=O)N[C@H]1CC[C@@H]2SC[C@@H](c3ncc(-c4ccc(-c5ccc(-c6cnc([C@@H]7CCCN7C(=O)[C@@H](NC(=O)OC)C(C)C)[nH]6)cc5)cc4)[nH]3)N2C1=O` [Example 368], the EC50 was under 1 nM.

For the molecule `COC(=O)N[C@H]1CC[C@H]2CC[C@@H](c3ncc(-c4ccc(-c5ccc(-c6cnc([C@@H]7CCCN7C(=O)[C@@H](NC(=O)OC)C(C)C)[nH]6)cc5)cc4)[nH]3)N2C1=O` [Example 369], the EC50 is under 1 nM.

Regarding `COC(=O)N[C@H](C(=O)N1CCC[C@H]1c1ncc(-c2ccc(-c3ccc(-c4cnc([C@@H]5CC[C@@H]6CC[C@@H](NC(=O)OC)C(=O)N65)[nH]4)cc3)cc2)[nH]1)C(C)C` [Example 370], the EC50 is under 1 nM.

On to `COC(=O)N[C@H]1CCC[C@@H]2CC[C@@H](c3ncc(-c4ccc(-c5ccc(-c6cnc([C@@H]7CCCN7C(=O)[C@@H](NC(=O)OC)C(C)C)[nH]6)cc5)cc4)[nH]3)N2C1=O` [Example 376], for which the EC50 was under 1 nM.

For `COC(=O)N[C@H](C(=O)N1CCC[C@H]1c1ncc(-c2ccc(-c3ccc(-c4cnc([C@@H]5CS[C@H]6CCCC(=O)N65)[nH]4)cc3)cc2)[nH]1)C(C)C` [Example 373], the EC50 was under 1 nM.

These data come from patent US8609648B2, “Hepatitis C virus inhibitors” (Enanta Pharmaceuticals, Inc., priority 2009, dated 2013).
